34 compounds from patent publication US20220073536A1 (Rigel Pharmaceuticals, Inc., priority 2003, published 2022) can be followed below.

Where two headings read alike, the source gives them in different places.

The test system of the experiment is cultured human mast cells (CHMC). Put plainly: CHMC low cell density IgE activation: tryptase assay. It is filed as cell-based. The following applies: IgE activation. The method, boiled down: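 Anti-IgE-driven degranulation of cultured human mast cells at low density, 1000–1500 cells/well, was induced over 30 min at 37 °C. It was scored by supernatant tryptase activity on a fluorogenic substrate.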

[1] abbreviates: Homo sapiens, Mast cell, low cell density, 8 pt, read-out: LD Tryptase, CHMC, IgE, 8 pt.
Where [2] appears, read: Homo sapiens, Mast cell, low cell density CHMC, tryptase release, 3 pt, read-out: LD Tryptase, CHMC, IgE, 3 pt.
[3] abbreviates: Homo sapiens, Mast cell, low cell density CHMC, tryptase release, 8 pt, read-out: LD Tryptase, CHMC, IgE, 8 pt.
[4] abbreviates: low cell density CHMC, tryptase release, 3 pt, read-out: LD Tryptase, CHMC, IgE, 3 pt.
The mark [5] stands for this setting: Homo sapiens, Mast cell, low cell density CHMC, tryptase, 3 pt, read-out: LD Tryptase, CHMC, IgE, 3 pt.
[6] abbreviates: Homo sapiens, Mast cell, low cell density, 3 pt, read-out: LD Tryptase, CHMC, IgE, 3 pt.
The mark [7] stands for this setting: low cell density CHMC, tryptase, 3 pt, read-out: LD Tryptase, CHMC, IgE, 3 pt.
The mark [8] stands for this setting: low cell density CHMC, tryptase, 8 pt, read-out: LD Tryptase, CHMC, IgE, 8 pt.
[9] abbreviates: Homo sapiens, Mast cell, low cell density CHMC, tryptase, 8 pt, read-out: LD Tryptase, CHMC, IgE, 8 pt.
[10] abbreviates: low cell density, 8 pt, read-out: LD Tryptase, CHMC, IgE, 8 pt.
Setting [11] is: low cell density, 3 pt, read-out: LD Tryptase, CHMC, IgE, 3 pt.

`C[C@@H]1Oc2ccc(Nc3nc(Nc4ccc5oncc5c4)ncc3F)cc2NC1=O` [Compound 927]: the IC50 under setting [1] is below 10 µM.
In the case of `COc1ccc(Nc2ncc(F)c(Nc3ccc4c(c3)NC(=O)CS4)n2)cc1F` [Compound 300, 5-Fluoro-N2-(3-fluoro-4-methoxyphenyl)-N4-(3-oxo-2H,4H-benzo[1,4]thiazin-6-yl)-2,4-pyrimidinediamine], the IC50 is, setting by setting: under setting [2], below 10 µM; under setting [3], below 10 µM.
For the compound `CC1(C)COc2ccc(Nc3nc(Cl)ncc3F)cc2N1` [Compound 320, N2-Chloro-N4-(3,3-dimethyl-1,4-benzoxazin-6-yl)-5-fluoro-pyrimidineamine], the IC50 under setting [4] is below 10 µM.
As for `CN1CCN(c2cccc(Nc3ncc(F)c(NC(C)(C)C)n3)c2)CC1` [Compound 1216], the IC50 under setting [5] was above 10 µM.
Turning to `COc1cc(Nc2ncc(F)c(Nc3ccc4c(c3)NC(C)(C)CO4)n2)cc(OC)c1` [Compound 203, N4-(3,4-Dihydro-3,3-dimethyl-2H,4H-benz[1,4]oxazin-6-yl)-N2-(3,5-dimethoxyphenyl)-5-fluoro-2,4-pyrimidinediamine], the IC50 under setting [3] is below 10 µM.
Turning to `COc1cc(Nc2ncc(F)c(Nc3ccc4c(c3)NC(=O)CS4)n2)cc(OC)c1OC` [Compound 287], the IC50 under setting [3] is below 10 µM.
Take `COc1ccc(Nc2nc(Nc3cc(C)cc(C)c3)ncc2F)nc1Cl` [Compound 879, N4-(2-Chloro-3-methoxypyrid-6-yl)-N2-(3,5-dimethylphenyl)-5-fluoro-2,4-pyrimidinediamine]: the IC50 is, setting by setting: under setting [6], below 10 µM; under setting [1], below 10 µM.
With `CCOC(=O)N1CCN(c2ccc(Nc3ncc(F)c(Nc4ccc5c(n4)NC(=O)CO5)n3)cc2)CC1` [Compound 1072, N2-[4-(4-Ethoxycarbonylpiperazino)phenyl]-5-fluoro-N4-(3-oxo-2H,4H-5-pyrid[1,4]oxazin-6-yl)-2,4-pyrimidinediamine], for the setting “low cell density CHMC, tryptase readout, 8 pt, read-out: LD Tryptase, CHMC, IgE, 8 pt”, the IC50 was below 10 µM.
Turning to `CC1Sc2ccc(Nc3nc(Nc4ccc5oncc5c4)ncc3F)cc2NC1=O` (racemic) [Compound 931], the IC50 under setting [1] is below 10 µM.
In the case of `COc1cc(Nc2ncc(F)c(Nc3ccc4c(n3)NC(=O)C(C)(C)O4)n2)cc(OC)c1OC.O=S(=O)(O)c1ccc(O)cc1` [Compound 676, N4-(2,2-Dimethyl-3-oxo-4H-5-pyrid[1,4]oxazin-6-yl)-5-fluoro-N2-(3,4,5-trimethoxyphenyl)-2,4-pyrimidinediamine 4-Hydroxybenzenesulfonic Acid Salt], the IC50 by setting is: under setting [7], below 10 µM; under setting [8], below 10 µM.
Regarding `CC1(C)Sc2ccc(Nc3nc(Nc4cccc(O)c4)ncc3F)cc2NC1=O` [Compound 293], under setting [3], the IC50 was below 10 µM.
Take `COC(=O)c1ccc(Nc2ncc(F)c(Nc3ccc4c(c3)NC(=O)[C@H](C)O4)n2)cc1` [Compound 1263]: the IC50 under setting [9] is below 10 µM.
“N4- (5-Amino-1,2,4-triazol-3-yl)-5-fluoro-N2-[3- (N-methylamino)carbonylmethyleneoxyphenyl]-2,4-pyrimidinediamine [Compound 1251]”: the IC50 under setting [8] was below 10 µM.
Consider `Cc1nc2cc(Nc3ncc(F)c(Nc4ccc5c(n4)NC(=O)C(C)(C)O5)n3)ccc2n1CCO` [Compound 903, N4-(2,2-Dimethyl-3-oxo-4H-5-pyrid[1,4]oxazin-6-yl)-5-fluoro-N2-[1-(2-hydroxyethyl)-2-methylbenzimidazol-5-yl)-2,4-pyrimidinediamine], for which the IC50 under setting [1] is below 10 µM.
In the case of `Cc1cc(C)cc(Nc2ncc(F)c(Nc3cccc(OC(F)(F)F)c3)n2)c1` [Compound 325, N2-(3,5-Dimethylphenyl)-5-fluoro-N4-(3-trifluoromethoxyphenyl)-2,4-pyrimidinediamine], the IC50 under setting [2] is below 10 µM.
On to `Fc1cnc(Nc2cc(-c3ncco3)cc(C(F)(F)F)c2)nc1Nc1cc(-c2ncco2)cc(C(F)(F)F)c1` [Compound 529], for which the IC50 under setting [6] was below 10 µM.
Regarding “(R)-N2- (3-Chloro-4-methoxyphenyl)-5-fluoro-N4- (2-methyl-3-oxo-2H,4H-benz[1,4]oxazin-6-yl)-2,4-pyrimidinediamine (1S)-(+)-Camphorsulfonic Acid Salt [Compound 209]”, under “low cell density CHMC, tryptase release, 8 pt, read-out: LD Tryptase, CHMC, IgE, 8 pt”, the IC50 was below 10 µM.
With `Cn1c(CN2CCOCC2)nc2cc(Nc3ncc(F)c(Nc4ccc5c(n4)NC(=O)C(C)(C)O5)n3)ccc21` [Compound 958, N4-(2,2-Dimethyl-3-oxo-4H-5-pyrido[1,4]oxazin-6-yl)-5-fluoro-N2-[1-methyl-2-(4-morpholinomethyl)benzimidazol-5-yl]-2,4-pyrimidinediamine], the IC50 under setting [10] is below 10 µM.
`CNC(=O)COc1c(C)cc(Nc2ncc(F)c(Nc3ccc(OC)c(Cl)c3)n2)cc1C` [Compound 571, N4-(3-Chloro-4-methoxyphenyl)-N2-[3,5-dimethyl-4-(N-methylamino)carbonylmethyleneoxyphenyl]-5-fluoro-2,4-pyrimidinediamine]: the IC50 is below 10 µM (low cell density CHMC, tryptase release, 3 point, read-out: LD Tryptase, CHMC, IgE, 3 pt) and below 10 µM (low cell density CHMC, tryptase release, 8 point, read-out: LD Tryptase, CHMC, IgE, 8 pt).
As to “N4-[3,4- (Difluoromethylenedioxy)phenyl]-N2- (3,5-dimethoxyphenyl)-5-fluoro-2,4-pyrimidinediamine [Compound 562]”, the IC50 reads like this: under setting [11], below 10 µM; under setting [10], below 10 µM.
For the compound `COC(=O)COc1cccc(Nc2ncc(F)c(Nc3ccc4c(c3)NC(=O)C(C)(C)O4)n2)c1C` [Compound 1066, N4-(2,2-Dimethyl-3-oxo-4H-benz[1,4]oxazin-6-yl)-5-fluoro-N2-[3-methoxycarbonylmethyleneoxy-2-methylphenyl]-2,4-pyrimidinediamine], the IC50 (low cell density CHMC, tryptase readout, 3 pt, read-out: LD Tryptase, CHMC, IgE, 3 pt) was below 10 µM.
As to `CCCn1cc2cc(Nc3ncc(F)c(Nc4ccc5c(c4)NC(=O)C(C)(C)O5)n3)ccc2n1` [Compound 763, N4-(2,2-Dimethyl-3-oxo-4H-benz[1,4]oxazin-6-yl)-5-fluoro-N2-(2-n-propylindazol-5-yl)-2,4-pyrimidinediamine], the IC50 under setting [5] is below 10 µM and the IC50 under setting [9] was below 10 µM.
Take `CNC(=O)COc1cccc(Nc2ncc(F)c(Nc3ccc(OC)c(Cl)n3)n2)c1` [Compound 880, N4-(2-Chloro-3-methoxypyrid-6-yl)-5-fluoro-N2-[3-(N-methylamino)carbonylmethyleneoxyphenyl]-2,4-pyrimidinediamine]: the IC50 runs as follows: under setting [11], below 10 µM; under setting [10], below 10 µM.
Regarding `COC(=O)c1cc2cc(Nc3ncc(F)c(Nc4ccc(OC)c(N)n4)n3)ccc2o1` [Compound 546], the IC50 under setting [6] was below 10 µM.
For `COc1cc(Nc2nc(Nc3ccc4c(cnn4CC4CCC4)c3)ncc2F)ccc1F` [Compound 729, N2-[1-(Cyclobuylmethyl)indazol-5-yl)-5-fluoro-N4-(4-fluoro-3-methoxyphenyl)-2,4-pyrimidinediamine], the IC50 under setting [8] is below 10 µM.
For `NCCCn1ncc2cc(Nc3ncc(F)c(Nc4ccc(Cl)c(Cl)c4)n3)ccc21` [Compound 824, N2-[1-(3-Aminopropyl)indazol-5-yl]-N4-(3,4-dichlorophenyl)-5-fluoro-2,4-pyrimidinediamine], under setting [3], the IC50 is below 10 µM.
In the case of `CN(c1ccc2c(c1)OCCO2)c1nc(NN)ncc1F` [Compound 533, N4-(3,4-Ethylenedioxyphenyl)-5-fluoro-N4-methyl-2-hydrazine-4-pyrimidineamine], the IC50 under setting [11] is above 10 µM.
For `O=C1CSc2ccc(Nc3nc(Cl)ncc3F)cc2N1` [Compound 313, N2-Chloro-5-fluoro-N4-(3-oxo-2H,4H-benzo[1,4]thiazin-6-yl)-4-pyrimidineamine], under setting [4], the IC50 is below 10 µM.
Regarding `COc1ccc(Nc2nc(Nc3ccc4c(cnn4C4CCCCC4)c3)ncc2F)cc1Cl` [Compound 742, N4-(3-Chloro-4-methoxyphenyl)-N2-(1-cyclohexylindazol-5-yl)-5-fluoro-2,4-pyrimidinediamine], the IC50 runs as follows: under setting [5], below 10 µM; under setting [9], below 10 µM.
As for `COC(=O)CN1C(=O)C(C)(C)Oc2ccc(Nc3ccnc(Nc4ccc5c(n4)N(CC(=O)OC)C(=O)C(C)(C)O5)n3)nc21` [Compound 688, N2,N4-Bis (2,2-dimethyl-4-carbomethoxymethyl-3-oxo-5-pyrid[1,4]oxazin-6-yl)-2,4-pyrimidinediamine], the IC50 under setting [7] is above 10 µM.
Take `COc1ccc(Nc2ncc(F)c(Nc3ccc4c(c3)NC(=O)[C@@H](C)O4)n2)cc1Cl` [Compound 207]: under setting [3], the IC50 is below 10 µM.
Take `Fc1cnc(Nc2cccc(-c3cnco3)c2)nc1Nc1ccc2c(n1)NCCO2` [Compound 1132, N4-(3,4-Dihydro-2H,4H-5-pyrid[1,4]oxazin-6-yl)-5-fluoro-N2-[3-(oxazol-5-yl)phenyl]-2,4-pyrimidinediamine]: under setting [8], the IC50 is below 10 µM.
Take `Cc1cc(C)cc(Nc2ncc(F)c(Nc3ccc4c(c3)OCO4)n2)c1` [Compound 376]: the IC50 under setting [9] was below 10 µM.
Consider `Cc1nc2cc(Nc3ncc(F)c(Nc4ccc(Cl)c(Cl)c4)n3)ccc2n1CCO` [Compound 899], for which the IC50 is, setting by setting: under setting [6], below 10 µM; under setting [1], below 10 µM.
